The text below walks through data of US7994318B2, “Coumarin derivatives useful as TNFα inhibitors” (Chugai Seiyaku Kabushiki Kaisha, priority 2000, dated 2011).

This test deals with TNFα. Kind of test: In vitro assay: TNFα ELISA of supernatants of LPS-stimulated human PBMC. Type of test: cell-based. Conditions: human PBMC pretreated with drug 60 min, stimulated with LPS (E. coli O55:B5) 100 ng/mL, overnight culture, TNFα in supernatant by ELISA, read-out: 50% Inhibition of TNFα level (IC50). How it is done:
Enzyme-linked immunosorbent assays (ELISA) for TNFα can be performed in a conventional manner (Blood, 75, 40-47 (1990)). Human PBMC are isolated from heparinized venous blood obtained from healthy volunteers by Ficoll-Hypaque density centrifugation. The cells are cultured in RPMI1640 medium supplemented with 5% heat-inactivated fetal calf serum and antibiotics. PBMC (5×10E5 cells/mL) in 0.2 mL aliquot are pretreated with drugs in DMSO for 60 min at 37° C. in 96 well round-bottomed tissue culture plates. Thereafter, PBMC in the presence or absence of compound are stimulated with 1 mg/mL LPS from E. coli O55:B5 at a final concentration of 100 ng/mL. After overnight culture, the supernatants are harvested and assayed immediately for TNFα levels from each well. The concentration of TNFα in the supernatant is determined by human TNFα ELISA Kit according to the manufacture's directions.
Active compounds are characterized by the concentration of the compound that caused 50% inhibition of TNFα level (IC50).
(In an ELISA, binding on a coated surface is turned into a signal by an enzyme label.)

Like-named read-outs stand apart in the source and are kept apart here.

With `Cc1c(Cc2cccc([N+](=O)[O-])c2)c(=O)oc2cc(OC(=O)N(C)C)c(Cl)cc12` [Example 14-23], the IC50 is below 0.6 µM. Same read-out and setting: next, `CCc1c(Cc2cccc(N)c2)c(=O)oc2cc(Oc3ncccn3)cc(F)c12` [Example 20-59]: 5.9 µM. Take `Cc1c(Cc2ccccc2)c(=O)oc2cc(Oc3ncccn3)ccc12` [Example 15, 2-oxo-2H-3-benzyl-4-methyl-7-(pyrimidin-2-yloxyl)-1-benzopyrane]: the IC50 (Homo sapiens, PBMC) is 9.4 µM. With `CCOC(=O)CC(=O)Nc1cccc(Cc2c(CC)c3c(F)cc(Oc4ncccn4)cc3oc2=O)c1` [Example 20-61], the IC50 stood at 0.65 µM. On to `Cc1c(Cc2ccccc2)c(=O)oc2cc(Oc3ncccn3)c(Cl)cc12` [Example 16, 2-oxo-2H-3-benzyl-4-methyl-6-chloro-7-(pyrimidin-2-yloxyl)-1-benzopyrane], for which the IC50 (Homo sapiens, PBMC) amounted to 6.8 µM. For the molecule `Cc1c(Cc2ccccc2[N+](=O)[O-])c(=O)oc2cc(OC(=O)N(C)C)c(Cl)cc12` [Example 14-21], the IC50 was 3 µM. On to `Cc1c(Cc2cccc(NC(=O)CNC(=O)OCc3ccccc3)c2)c(=O)oc2cc(Oc3ncccn3)c(Cl)cc12` [Example 20-31], for which the IC50 was determined as 9.8 µM. For the molecule `Cc1c(Cc2ccc(C(C)C)cc2)c(=O)oc2cc(OC(=O)N(C)C)ccc12` [Example 14-52], the IC50 is 11.6 µM. Consider `CC(=O)Nc1cccc(Cc2c(C)c3ccc(OC(=O)N(C)C)cc3oc2=O)c1` [Example 14-60], for which the IC50 is 1.1 µM. Take `CN(C)C(=O)Oc1ccc2c(CC(O)c3ccccn3)c(Cc3ccccc3)c(=O)oc2c1` (centres unmarked) [Example 5, dimethyl carbamic acid 2-oxo-2H-3-benzyl-4-(2-(2-pyridyl)-2-hydroxylethyl)-1-benzopyran-7-yl ester]: the IC50 (Homo sapiens, PBMC) was found to be 19.3 µM. Consider `CCc1c(Cc2ccccc2)c(=O)oc2cc(OC(=O)N(C)C)ccc12` [Example 14-73], for which the IC50 amounted to 1.7 µM.

For `Cc1c(Cc2cccc(NS(C)(=O)=O)c2)c(=O)oc2cc(Oc3ncccn3)c(Cl)cc12` [Example 20-41], the IC50 was below 0.6 µM. On to `Cc1c(Cc2cccc([N+](=O)[O-])c2)c(=O)oc2cc(Oc3nccs3)cc(F)c12` [Example 22-3], for which the IC50 was determined as 10.1 µM. On to `CC(=O)Nc1cccc(Cc2c(C)c3c(F)cc(Oc4ncccn4)cc3oc2=O)c1` [Example 20-39], for which the IC50 is 5.4 µM. On the same count and under the same terms, next, `Cc1c(Cc2ccncc2)c(=O)oc2cc(Oc3ncccn3)c(Cl)cc12` [Example 20-13]: 7.5 µM. Take `Cc1c(Cc2ccccc2)c(=O)oc2cc(OC(=O)N(C)C)cc(F)c12` [Example 10, dimethyl carbamic acid 2-oxo-2H-3-benzyl-4-methyl-5-fluoro-1-benzopyran-7-yl ester]: the IC50 by setting is: (Homo sapiens, PBMC) below 0.6 µM; (listed as 14-4) 0.44 µM. In the case of `Cc1c(Cc2ccccc2)c(=O)oc2cc(SC(=O)N(C)C)ccc12` [Example 13, dimethyl thiocarbamic acid S-2-oxo-2H-3-benzyl-4-methyl-1-benzopyran-7-yl ester], the IC50 (Homo sapiens, PBMC) amounted to 0.68 µM. `Cc1c(Cc2ccncc2)c(=O)oc2cc(OC(=O)N(C)C)c(Cl)cc12` [Example 11, dimethyl carbamic acid 2-oxo-2H-3-(p-pyridinylmethyl)-4-methyl-6-chloro-1-benzopyran-7-yl ester]: under “Homo sapiens, PBMC”, the IC50 came out at 0.13 µM. Turning to `Cc1c(Cc2ccccc2)c(=O)oc2cc(OC(=O)N(C)C)c(C=O)cc12` [Example 14-16], the IC50 turned out to be 9.6 µM. For the molecule `Cc1c(Cc2ccccc2)c(=O)oc2cc(C(F)C#N)ccc12` (centres unmarked) [Example 26-24], the IC50 was determined as 1.7 µM. In the case of `CCOC(=O)CC(=O)Nc1cccc(Cc2c(C)c3cc(Cl)c(OC(=O)N(C)C)cc3oc2=O)c1` [Example 14-26], the IC50 is 0.05 µM.

With `CCc1c(Cc2ccccc2)c(=O)oc2cc(Oc3ncccn3)ccc12` [Example 20-49], the IC50 came to 10.9 µM. For `Cc1c(Cc2cccnc2)c(=O)oc2cc(OC(=O)N(C)C)c(Cl)cc12` [Example 14-35], the IC50 is 0.45 µM. Turning to `CC(=O)Nc1cccc(Cc2c(C)c3c(Cl)cc(Oc4ncccn4)cc3oc2=O)c1` [Example 20-37], the IC50 is 11.8 µM. On to `COC(=O)c1cccc(Cc2c(C)c3ccc(OC(=O)N(C)C)cc3oc2=O)c1` [Example 14-67], for which the IC50 amounted to 1.7 µM. In the case of `Cc1c(Cc2ccccc2)c(=O)oc2cc(Oc3ncccn3)c(Br)cc12` [Example 20-4], the IC50 amounted to 9.5 µM. As to `Cc1c(Cc2ccccn2)c(=O)oc2cc(OC(=O)N(C)C)ccc12` [Example 14-30], the IC50 amounted to 6.47 µM. As for `CC(=O)Nc1cccc(Cc2c(C)c3cc(Cl)c(Oc4ncccn4)cc3oc2=O)c1` [Example 20-43], the IC50 is 3.1 µM. With `Cc1c(Cc2ccccc2)c(=O)oc2cc(C=O)ccc12` [Example 26-1], the IC50 came out at 6.3 µM. In the case of `Cc1c(Cc2ccccc2)c(=O)oc2cc(C(O)c3ccsc3)ccc12` (centres unmarked) [Example 26-22], the IC50 stood at 8.2 µM. In the case of `Cc1c(Cc2ccccc2)c(=O)oc2cc(OC(=O)N(C)C)c(C#C[Si](C)(C)C)cc12` [Example 14-18], the IC50 was 3.9 µM. Consider `Cc1ccc(S(=O)(=O)Nc2cccc(Cc3c(C)c4cc(Cl)c(Oc5ncccn5)cc4oc3=O)c2)cc1` [Example 20-45], for which the IC50 turned out to be 7.2 µM.

With `CC(=O)CC(=O)Nc1cccc(Cc2c(C)c3cc(Cl)c(Oc4ncccn4)cc3oc2=O)c1` [Example 20-42], the IC50 was determined as 2.2 µM. Consider `Cc1c(Cc2cccc(N)c2)c(=O)oc2cc(OC(=O)N(C)C)ccc12` [Example 14-65], for which the IC50 is 2.7 µM. Take `CCOC(=O)CC(=O)Nc1cccc(Cc2c(C)c3ccc(Oc4ncccn4)cc3oc2=O)c1` [Example 19, 2-oxo-2H-3-(m-ethoxycarbonyl-acetylaminobenzyl)-4-methyl-7-(pyrimidin-2-yloxyl)-1-benzopyrane]: the IC50 (Homo sapiens, PBMC) is below 0.6 µM. In the case of `Cc1c(Cc2ccccc2)c(=O)oc2cc(OC(=O)N(C)C)c([N+](=O)[O-])cc12` [Example 14-17], the IC50 was 0.12 µM. Take `CN(C)C(=O)Oc1ccc2c(-c3cccnc3)c(Cc3ccccc3)c(=O)oc2c1` [Example 8, dimethyl carbamic acid 2-oxo-2H-3-benzyl-4-(m-pyridyl)-1-benzopyran-7-yl ester]: where the note is “Homo sapiens, PBMC”, the IC50 was 18.7 µM. `CCc1c(Cc2cccc([N+](=O)[O-])c2)c(=O)oc2cc(Oc3ncccn3)c(Cl)cc12` [Example 20-55]: the concentration for half-maximal inhibition (IC50) came to 6.4 µM.

For `Cc1c(Cc2ccccc2)c(=O)oc2cc(C(C)(F)F)ccc12` [Example 26-11], the IC50 was found to be 9 µM. For the molecule `CCc1c(Cc2cccc([N+](=O)[O-])c2)c(=O)oc2cc(OC(=O)N(C)C)ccc12` [Example 14-77], the IC50 stood at 0.9 µM. With `Cc1c(Cc2ccccc2)c(=O)oc2c(C=O)c(OC(=O)N(C)C)ccc12` [Example 6, dimethyl carbamic acid 2-oxo-2H-3-benzyl-4-methyl-8-formyl-1-benzopyran-7-yl ester], where the note is “Homo sapiens, PBMC”, the IC50 was 12.9 µM. Consider `Cc1c(Cc2ccccc2)c(=O)oc2cc(OC(=O)N(C)C)c(C#N)cc12` [Example 9, dimethyl carbamic acid 2-oxo-2H-3-benzyl-4-methyl-6-cyano-1-benzopyran-7-yl ester], for which, for the setting “Homo sapiens, PBMC”, the IC50 was 0.85 µM.

`Cc1c(Cc2cccc(N(C)C)c2)c(=O)oc2cc(OC(=O)N(C)C)ccc12` [Example 14-72]: the IC50 came to 1.9 µM. On to `CN(C)C(=O)Oc1ccc2c(CCO)c(Cc3ccccc3)c(=O)oc2c1` [Example 4, dimethyl carbamic acid 2-oxo-2H-3-benzyl-4-(2-hydroxylethyl)-1-benzopyran-7-yl ester], for which, for the setting “Homo sapiens, PBMC”, the IC50 came out at 2.1 µM.

As to `C=Cc1ccc2c(C)c(Cc3ccccc3)c(=O)oc2c1` [Example 23, 2-oxo-3-benzyl-4-methyl-7-vinyl-2H-1-benzopyrane], the IC50 (Homo sapiens, PBMC) was determined as 10.3 µM.

Turning to `CCCCS(=O)(=O)Nc1cccc(Cc2c(C)c3cc(Cl)c(Oc4ncccn4)cc3oc2=O)c1` [Example 20-48], the IC50 is 1.8 µM.

Regarding `CCOC(=O)CC(=O)Nc1cccc(Cc2c(CC)c3ccc(Oc4nccs4)cc3oc2=O)c1` [Example 22-9], the IC50 came out at 0.27 µM. In the case of `CCc1c(Cc2ccccc2)c(=O)oc2cc(Oc3ncccn3)c(Cl)cc12` [Example 20-50], the IC50 came to 4.5 µM. As to `Cc1cc2c(C)c(Cc3ccccc3)c(=O)oc2cc1OC(=O)N(C)C` [Example 14-14], the IC50 was determined as 0.4 µM. In the case of `CCc1c(Cc2cccc(NC(C)=O)c2)c(=O)oc2cc(OC(=O)N(C)C)ccc12` [Example 14-79], the IC50 was determined as 1.6 µM.

Take `CCCc1c(Cc2ccc(F)cc2)c(=O)oc2cc(OC(=O)N(C)C)ccc12` [Example 7, dimethyl carbamic acid 2-oxo-2H-3-(4-fluorobenzyl)-4-n-propyl-1-benzopyran-7-yl ester]: where the note is “Homo sapiens, PBMC”, the IC50 was 1.17 µM. As for `Cc1c(Cc2cccc(NC(=O)CC(=O)O)c2)c(=O)oc2cc(Oc3ncccn3)c(Cl)cc12` [Example 20-34], the IC50 came to 10.6 µM.

With `CCc1c(Cc2ccncc2)c(=O)oc2cc(OC(=O)N(C)C)c(Cl)cc12` [Example 14-81], the IC50 was found to be 0.34 µM. Regarding `Cc1c(Cc2cccc(N)c2)c(=O)oc2cc(Oc3ncccn3)ccc12` [Example 20-19], the IC50 was 7.2 µM.

For `Cc1c(Cc2ccccc2)c(=O)oc2cc(Oc3ncccn3)c(I)cc12` [Example 20-5], the half-maximal inhibitory concentration (IC50) was 8.8 µM.

Usually IC50 stands for the concentration at which inhibition is half-maximal.
